In patent publication US4447434A, “Substituted dibenzodiazepinones” (Dr. Karl Thomae GmbH, priority 1982, dated 1984):
Where two headings read alike, the source gives them in different places.

Key:
[1] = Mydriasis (effect on the pupil size); settings: rat, in vivo, iv; pupil size observed for 10 minutes; double blind
Procedure: The effect of the test substances on the pupil size in rats was investigated as follows:
The substances were administered intravenously to groups of 10 animals in at least three uniformly graduated doses. […] The percentage of test animals in which mydriasis occurred was determined. The ED50 values were again determined using the method of LITCHFIELD and WILCOXON (see above).

[2] = target: muscarinic receptors (smooth muscle fundus of stomach); assay: Binding to muscarinic receptors, smooth muscle of the fundus of the stomach (displacement of 3H-N-methylscopolamine); design: species or system rat (male Sprague-Dawley); settings: smooth muscle of fundus homogenate 1:100; 0.3 n molar 3H-NMS; 30° C, 45 min, pH 7.4; read-out: Receptor binding tests IC50, Smooth muscle fundus of stomach
Procedure: (§1) 2. Studies of binding to muscarinic receptors: Determination of the IC50 value
(§2) The organ donors were male Sprague-Dawley rats with a body weight of from 180 to 220 g. After the heart, stomach and cerebral cortex had been removed, the remainder of the operation was carried out in ice-cold Hepes-HCl buffer (pH 7.4; 100 m molar NaCl, 10 m molar MgCl2). The smooth muscle of the fundus of the stomach was separated from the mucous membrane of the stomach and subjected to preliminary homogenization. The whole heart was cut up with scissors. All the organs were then homogenized in a Potter apparatus.
(§3) For the binding test, the homogenized organs were diluted as follows:
Smooth muscle of the fundus of the stomach: 1:100
(§4) The homogenized organ preparations were incubated at a specific concentration of the radiolabelled compound and with a series of concentrations of the nonradioactive test substances in an Eppendorf centrifuge tube at 30° C. The duration of incubation was 45 minutes. 0.3 n molar ^3 H-N-methylscopolamine (^3 H-NMS) was used as the radiolabelled compound. After incubation had been brought to an end by centrifuging at 14000 g, the radioactivity in the pellet was determined. It represents the sum of the specific and nonspecific binding of ^3 H-NMS. The proportion of nonspecific binding was defined as the radioactivity which was bound in the presence of 1μ molar quinuclidinylbenzylate. Four measurements were taken in each case. The IC50 values of the non-labelled test substances were determined graphically. They represent the concentration of test substance at which the specific binding of ^3 H-NMS to the muscarinic receptors in the various organs was inhibited by 50%.

[3] = tested on: oxotremorine-induced lesions in the mucous membrane of the stomach; assay: Oxotremorine test: antiulcerative effect (protection against lesions of the mucous membrane of the stomach); format: in vivo, rat (female albino, Crl:COBS-CD (SD) BR); settings: Rattus norvegicus, iv; for ED50: read-out: Oxotremorine Test, Antiulcerative effect ED50; for ED70: read-out: Oxotremorine Test, Antiulcerative effect ED70
Procedure: (§5) Oxotremorine, a specific agonist for muscarinic receptors, produces lesions in the mucous membrane of the stomach in rats and increases their secretion of saliva. This test method was chosen so that any selective activity of an antimuscarinic substance on the stomach could be identified.
(§6) 10 female albino rats (of the Crl:COBS-CD (SD) BR strain) with a body weight of from 120 to 150 g were used in each treatment group and were kept without food for 24 hours before the start of the test but given free access to drinking water.
(§7) In order to determine, in preliminary tests, the muscarinic effect of oxotremorine on each of the symptoms studied, a dosage/activity curve was drawn up with at least three dosages for each symptom.
(§8) When testing the antimuscarinic substances, the dosage of oxotremorine which triggered the symptom in question in 90 to 100% of the animals in the preliminary tests was used.
Lesions in mucous membrane of stomach: 0.62 mg/kg i.v.
(§9) Each antimuscarinic substance was administered intravenously in uniformly graduated doses 15 minutes before the oxotremorine was administered. Control groups were given corresponding quantities of the solvent and suspending agent instead of the test substance.
(§10) Immediately after the oxotremorine was administered, the animals were placed in a glass case for 15 minutes and observed.
(§11) The ED50 values were determined using the method described by LITCHFIELD and WILCOXON (J. Pharmacol. Exp. Ther. 96, 99, 1949).
The effects on lesions of the mucous membrane of the stomach were evaluated as follows:
The lesions of the gastric mucous membrane were produced by intravenous injection of 0.62 mg/kg of oxotremorine 30 minutes after the oral administration of 1 mg/kg of neostigmine (a cholinesterase inhibitor). 60 minutes after the administration of the neostigmine, the animals were killed, the stomachs were removed and opened and examined for the presence of any lesions in the mucous membrane. The protective effect of the test substances was expressed as the percentage inhibition (percentage of animals without lesions). The ED50 and ED70 values were determined using the method of LITCHFIELD and WILCOXON (see above).

[4] = target: T1, muscarinic receptors (heart) (Rattus norvegicus, UniProt P10980); assay: Binding to muscarinic receptors, whole heart (displacement of 3H-N-methylscopolamine); design: species or system rat (male Sprague-Dawley)
T1 construct: The whole heart was cut up with scissors; from tissue; host or cells: whole heart of male Sprague-Dawley rats, homogenate
T1 sequence (P10980 1-466): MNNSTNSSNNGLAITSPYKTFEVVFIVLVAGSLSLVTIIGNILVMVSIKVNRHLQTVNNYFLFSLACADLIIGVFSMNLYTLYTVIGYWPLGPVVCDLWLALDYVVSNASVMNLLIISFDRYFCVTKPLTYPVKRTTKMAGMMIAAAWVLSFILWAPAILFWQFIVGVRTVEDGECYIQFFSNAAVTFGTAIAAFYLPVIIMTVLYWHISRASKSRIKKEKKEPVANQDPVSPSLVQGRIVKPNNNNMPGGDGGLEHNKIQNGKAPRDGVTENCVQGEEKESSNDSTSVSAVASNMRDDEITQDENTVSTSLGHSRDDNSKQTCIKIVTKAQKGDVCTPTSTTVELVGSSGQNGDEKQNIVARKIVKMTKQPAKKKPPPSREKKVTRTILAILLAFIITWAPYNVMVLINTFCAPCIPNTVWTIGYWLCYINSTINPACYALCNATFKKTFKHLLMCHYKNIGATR
Procedure: as §1, §2, §3, §4

[5] = target: muscarinic receptors (cerebral cortex); assay: Binding to muscarinic receptors, cerebral cortex (displacement of 3H-N-methylscopolamine); design: species or system rat (male Sprague-Dawley); settings: cerebral cortex homogenate 1:3000; 0.3 n molar 3H-NMS; 30° C, 45 min, pH 7.4; read-out: Receptor binding tests IC50, Cortex
Procedure: as §1, §2, §3, §4

[6] = tested on: oxotremorine-induced secretion of saliva; assay: Oxotremorine test: inhibition of salivation; format: in vivo, rat (female albino, Crl:COBS-CD (SD) BR); settings: Rattus norvegicus, iv, 0.25 h, read-out: Oxotremorine Test, Inhibition of salivation ED50
Procedure: as §5, §6, §7, §8
Secretion of saliva: 0.083 mg/kg i.v.
as §9, §10, §11

[7] = 15 min before oxotremorine 0.62 mg/kg i.v., neostigmine 1 mg/kg oral
[8] = i.v., 15 min before oxotremorine 0.083 mg/kg i.v., double blind

## CN1CC=C(C(=O)N2c3ccccc3NC(=O)c3ccccc32)CC1 [Substance A, 5,10-dihydro-5-[(1-methyl-1,2,5,6-tetrahydro-4-pyridinyl)-carbonyl]-11H-dibenzo[b,e][1,4]diazepin-11-one]
[1]
  ED50 at 10 min: 0.0366 mg/kg
[2]
  IC50: 100 nM
[3]; [7]
  ED50: 0.0031 mg/kg
  ED70: 0.0065 mg/kg
[4]
  IC50: 250 nM
[5]
  IC50: 30 nM
[6]; [8]
  ED50: 0.08 mg/kg

## CN1[C@@H]2CC[C@H]1C[C@@H](CC(=O)N1c3ccccc3NC(=O)c3ccccc31)C2 [Substance C, endo-5,10-dihydro-5-[(8-methyl-8-azabicyclo[3,2,1]-oct-3-yl)acetyl]-11H-dibenzo[b,e][1,4]diazepin-11-one]
[1]
  ED50 at 10 min: 0.054 mg/kg
[2]
  IC50: 200 nM
[3]
  ED50: 0.0011 mg/kg
  ED70: 0.0038 mg/kg
[4]; whole heart homogenate 1:250, 0.3 n molar 3H-NMS, 30° C, 45 min, pH 7.4, read-out: Receptor binding tests IC50, Heart
  IC50: 55 nM
[5]
  IC50: 15 nM
[6]
  ED50: 0.105 mg/kg

## CN1CCC(CC(=O)N2c3ccccc3C(=O)Nc3cccc(Cl)c32)CC1 [Substance B, 6-chloro-5,10-dihydro-5-[(1-methyl-4-piperidinyl)acetyl]-11H-dibenzo[b,e][1,4]diazepin-11-one]
[1]
  ED50 at 10 min: 0.138 mg/kg
[2]
  IC50: 170 nM
[3]; [7]
  ED50: 0.0044 mg/kg
  ED70: 0.0084 mg/kg
[4]
  IC50: 200 nM
[5]
  IC50: 28 nM
[6]; [8]
  ED50: 0.23 mg/kg
